# Measurements: patent publication US6576670B1, “Use of a 5HT2A and 5HT2A/C receptor antagonist for treating snoring and high resistance syndrome of upper anatomical airways” (Sanofi—Synthelabo, priority 1998, dated 2003)
# Like-named read-outs stand apart in the source and are kept apart here.
# Columns and labels:
# 5HT2 receptor [1] = settings: rats; cited from earlier work
# [2] = decerebrated newborn cats; high doses; cited from earlier work
# [3] = decerebrated newborn rats; cited from earlier work
# slow wave sleep = assay: sleep study in young healthy subjects; type: in vivo, human; settings: young (18 to 35 years old) healthy subjects
# 5HT2 receptor [4] = settings: rodents; cited from earlier work
# [5] = target: T1, rat stomach fundus (5HT2B) (Rattus norvegicus, UniProt P30994); settings: isolated tissue; indicates 5HT2A specificity versus 5HT2B; cited from earlier work
# T1 construct: from tissue; host or cells: rat stomach fundus (isolated tissue)
# 5HT1B receptor = 5HT1B receptor (Homo sapiens, UniProt P28222); settings: cited from earlier work
# spinal 5HT2 receptors = settings: newborn rat tissue preparations in vitro, cited from earlier work
# 5HT1D receptor = settings: cited from earlier work
# [6] = system: upper airway high resistance syndrome; assay: double blind clinical study versus placebo in upper airway high resistance syndrome; type: in vivo, human; settings: patients; gelatin capsule, for example 5 mg, daily with the evening meal
# Description: The effect of compound A is determined during a clinical study carried out according to a double blind design versus placebo in which patients with upper airway high resistance syndrome characterized by the presence of respiratory efforts with repeated wakefulness or microwakefulness and clinical symptoms such as diurnal somnolence and/or hypertension and/or fatigue and/or morning headache and/or nycturia, and the like took part. One gelatin capsule containing an active dose of compound A, for example 5 mg, is administered daily with the evening meal.
# 5HT2C receptor = target: T2, 5HT2C receptor (Homo sapiens, UniProt P28335); settings: cited from earlier work
# T2 sequence (P28335 33-458): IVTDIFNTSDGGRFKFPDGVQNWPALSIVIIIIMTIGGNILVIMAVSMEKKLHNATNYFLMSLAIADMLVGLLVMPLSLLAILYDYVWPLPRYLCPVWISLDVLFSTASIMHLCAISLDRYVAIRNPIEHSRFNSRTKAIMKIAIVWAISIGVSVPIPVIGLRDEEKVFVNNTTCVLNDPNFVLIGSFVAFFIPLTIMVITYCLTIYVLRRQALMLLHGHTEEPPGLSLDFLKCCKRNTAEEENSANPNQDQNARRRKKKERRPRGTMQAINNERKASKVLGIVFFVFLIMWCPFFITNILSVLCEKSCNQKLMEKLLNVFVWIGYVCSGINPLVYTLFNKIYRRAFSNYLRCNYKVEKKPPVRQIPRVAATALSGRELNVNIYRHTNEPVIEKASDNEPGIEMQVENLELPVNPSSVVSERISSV
# 5HT1A receptor = target: T3, 5HT1A receptor (Homo sapiens, UniProt P08908); settings: cited from earlier work
# T3 sequence (P08908 1-422): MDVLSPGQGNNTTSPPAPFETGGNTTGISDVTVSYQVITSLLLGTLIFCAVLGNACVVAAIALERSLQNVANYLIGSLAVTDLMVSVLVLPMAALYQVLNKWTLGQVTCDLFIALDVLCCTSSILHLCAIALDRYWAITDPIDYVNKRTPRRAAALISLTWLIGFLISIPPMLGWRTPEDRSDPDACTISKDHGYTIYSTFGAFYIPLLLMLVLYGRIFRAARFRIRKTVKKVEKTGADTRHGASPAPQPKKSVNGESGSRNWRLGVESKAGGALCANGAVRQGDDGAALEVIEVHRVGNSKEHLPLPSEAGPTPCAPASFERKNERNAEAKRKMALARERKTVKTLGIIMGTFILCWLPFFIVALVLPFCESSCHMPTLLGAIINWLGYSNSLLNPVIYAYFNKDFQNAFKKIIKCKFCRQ
# 5HT2A receptor = 5HT2A receptor (Homo sapiens, UniProt P28223); settings: cited from earlier work
# 5HT2 receptor [7] = settings: in vivo; cited from earlier work
# 5HT2 receptors = settings: administered systemically; English bulldog; cited from earlier work
# Chain of 5HT1B receptor (P28222 whole entry): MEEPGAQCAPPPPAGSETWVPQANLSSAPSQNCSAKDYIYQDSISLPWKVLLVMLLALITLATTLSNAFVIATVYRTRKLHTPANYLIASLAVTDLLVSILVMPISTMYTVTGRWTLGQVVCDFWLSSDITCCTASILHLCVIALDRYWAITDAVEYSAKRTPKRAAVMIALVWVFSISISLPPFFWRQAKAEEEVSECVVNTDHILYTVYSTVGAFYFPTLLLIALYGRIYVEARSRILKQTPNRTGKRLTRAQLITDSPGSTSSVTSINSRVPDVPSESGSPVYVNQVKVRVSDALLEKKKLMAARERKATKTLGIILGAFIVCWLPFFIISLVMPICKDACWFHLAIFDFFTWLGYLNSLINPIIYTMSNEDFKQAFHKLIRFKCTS
# Chain of 5HT2A receptor (P28223 whole entry): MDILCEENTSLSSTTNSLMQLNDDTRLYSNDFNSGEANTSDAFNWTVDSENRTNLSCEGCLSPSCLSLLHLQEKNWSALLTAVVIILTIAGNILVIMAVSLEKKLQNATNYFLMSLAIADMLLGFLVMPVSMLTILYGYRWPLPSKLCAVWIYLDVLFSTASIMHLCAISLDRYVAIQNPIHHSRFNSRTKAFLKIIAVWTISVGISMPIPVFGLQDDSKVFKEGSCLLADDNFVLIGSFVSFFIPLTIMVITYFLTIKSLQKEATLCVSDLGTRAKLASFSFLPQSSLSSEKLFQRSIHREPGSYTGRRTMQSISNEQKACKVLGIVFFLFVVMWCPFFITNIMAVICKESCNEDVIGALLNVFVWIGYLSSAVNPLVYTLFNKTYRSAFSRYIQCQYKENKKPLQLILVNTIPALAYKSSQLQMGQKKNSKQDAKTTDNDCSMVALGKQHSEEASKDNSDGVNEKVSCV
# T1 sequence (P30994 whole entry): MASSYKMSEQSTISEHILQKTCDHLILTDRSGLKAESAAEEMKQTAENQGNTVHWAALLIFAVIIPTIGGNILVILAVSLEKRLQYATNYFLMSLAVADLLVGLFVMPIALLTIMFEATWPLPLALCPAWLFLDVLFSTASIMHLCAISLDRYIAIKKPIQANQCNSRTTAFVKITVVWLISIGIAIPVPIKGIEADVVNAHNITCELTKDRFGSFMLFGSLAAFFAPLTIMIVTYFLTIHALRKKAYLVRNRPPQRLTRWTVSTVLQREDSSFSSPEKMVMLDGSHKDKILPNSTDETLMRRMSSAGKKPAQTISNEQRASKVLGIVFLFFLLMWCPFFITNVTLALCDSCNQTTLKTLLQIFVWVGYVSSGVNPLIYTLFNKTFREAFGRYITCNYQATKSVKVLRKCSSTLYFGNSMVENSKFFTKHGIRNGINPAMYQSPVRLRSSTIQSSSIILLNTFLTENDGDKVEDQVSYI
compound,measurement,setting,value
O=C(c1ccc(F)cc1)C1CCN(CCn2c(=O)[nH]c3ccccc3c2=O)CC1 [ketanserin],apnea induced by 5-HT,5HT2 receptor [1],inhibit
same,increase in pulmonary resistance induced by 5-HT,5HT2 receptor [1],inhibit
NCCc1c[nH]c2ccc(O)cc12 [5-hydroxytryptamine],apnea after administration,[2],induced prolonged central apneas
same,apnea after administration,[3],no apnea
"CN(C)CCO/N=C(/C=C/c1ccc(O)cc1)c1ccccc1F [compound A, (1Z,2E)-1-(2-fluorophenyl)-3-(4-hydroxyphenyl)prop-2-en-1-one-O-(2-dimethylaminoethyl)oxime hemifumarate]",paradoxical sleep,slow wave sleep,not being modified
same,stages 1 and 2 of slow wave sleep,slow wave sleep,slightly reduced
same,duration of stages 3 and 4 of slow wave sleep,slow wave sleep; from the dose of 1 mg,doubling
same,binding in the brain,5HT2 receptor [4],predominantly binds to the regions of the brain containing the 5HT2 receptor
same,activity on rat stomach fundus,[5],absence of activity
same,affinity for the 5HT1B receptor,5HT1B receptor,no affinity
same,depressant effect of 5-hydroxytryptamine on the activity of the hypoglossal nerve,spinal 5HT2 receptors,inhibits
same,tonic cervical activity induced by 5-hydroxytryptamine,spinal 5HT2 receptors; pretreatment,prevents or significantly reduces
same,affinity for the 5HT1D receptor,5HT1D receptor,no affinity
same,clinical symptoms,[6],reduction
same,number of wakings or microwakings,[6],marked reduction
same,respiratory efforts,[6],marked reduction
same,affinity for the 5HT2C receptor,5HT2C receptor,moderate affinity
same,affinity for the 5HT1A receptor,5HT1A receptor,no affinity
same,antagonism of the 5HT2A receptor,5HT2A receptor,antagonist which is specific for the 5HT2A receptor
CN(C)CCSc1nc2ccccc2cc1-c1ccccc1 [ICI 169 369],slow wave sleep time,5HT2 receptor [7],regulate or increase
Cc1nc2sccn2c(=O)c1CCN1CCC(=C(c2ccc(F)cc2)c2ccc(F)cc2)CC1 [ritanserin],slow wave sleep time,5HT2 receptor [7],regulate or increase
same,activity of the diaphragm,5HT2 receptors,slight reduction
same,activity of the dilatory muscle of the upper respiratory tracts,5HT2 receptors,marked reduction
